The values below are quoted from earlier work in US8263663B2, “Azide functionalized peptide targeting groups” (Intezyne Technologies, Inc., priority 2005, dated 2012).

The conditions of the data set: at similar concentrations (to 225 μg/mL).

In the case of `COc1cccc2c1C(=O)c1c(O)c3c(c(O)c1C2=O)C[C@@](O)(C(=O)CO)C[C@@H]3O[C@H]1C[C@H](N)[C@H](O)[C@H](C)O1` [DOX, doxorubicin], the hemolysis is listed as above 10%.
